# In PubChem BioAssay AID651733 (The Scripps Research Institute Molecular Screening Center, 2012):
# Values joined by “and” are separate entries in the source; they are usually repeats but may differ in a detail not shown here. Equal entries are not always repeated. Active and inactive are the calls of the source. The rule behind the calls is not given here.
# Molecular target: Perilipin-5 (Homo sapiens) + 1-acylglycerol-3-phosphate O-acyltransferase ABHD5 (Homo sapiens) (UniProt Q00G26+Q8WTS1)
# Assay: blockers of ABHD5 binding to perilipin-5 – cell lysate, luminescence, proteins expressed in HEK293T, dose response (AID 651733);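 note: split Gaussia princeps luciferase complementation between ABHD5 and MLDP fusion proteins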
# Conditions: ABHD5-PLIN5 interaction
# Perilipin-5 (Homo sapiens) + 1-acylglycerol-3-phosphate O-acyltransferase ABHD5 (Homo sapiens), sequence (Q00G26 whole entry, looked up, the tested form may be a part): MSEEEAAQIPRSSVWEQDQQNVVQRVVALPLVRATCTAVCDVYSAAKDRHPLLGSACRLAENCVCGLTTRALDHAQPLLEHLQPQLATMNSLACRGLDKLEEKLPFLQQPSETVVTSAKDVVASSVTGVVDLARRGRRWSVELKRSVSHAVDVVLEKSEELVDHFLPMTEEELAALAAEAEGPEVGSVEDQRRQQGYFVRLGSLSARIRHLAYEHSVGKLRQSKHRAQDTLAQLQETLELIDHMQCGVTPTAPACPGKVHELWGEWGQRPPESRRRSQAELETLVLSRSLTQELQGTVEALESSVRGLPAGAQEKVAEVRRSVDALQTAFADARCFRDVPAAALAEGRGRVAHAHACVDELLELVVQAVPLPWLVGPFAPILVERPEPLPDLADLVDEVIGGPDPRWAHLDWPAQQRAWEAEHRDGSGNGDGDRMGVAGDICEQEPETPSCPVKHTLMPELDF
# Perilipin-5 (Homo sapiens) + 1-acylglycerol-3-phosphate O-acyltransferase ABHD5 (Homo sapiens), sequence (Q8WTS1 whole entry, looked up, the tested form may be a part): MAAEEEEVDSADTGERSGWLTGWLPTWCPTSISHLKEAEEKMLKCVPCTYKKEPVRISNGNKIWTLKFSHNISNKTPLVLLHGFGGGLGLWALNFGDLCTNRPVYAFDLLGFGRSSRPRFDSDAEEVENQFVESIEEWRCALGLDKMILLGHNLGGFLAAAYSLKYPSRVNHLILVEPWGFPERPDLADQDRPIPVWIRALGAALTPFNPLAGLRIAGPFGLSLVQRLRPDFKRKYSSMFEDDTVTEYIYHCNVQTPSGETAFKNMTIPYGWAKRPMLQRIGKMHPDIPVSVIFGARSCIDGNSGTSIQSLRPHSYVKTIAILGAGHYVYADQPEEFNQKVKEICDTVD
row,SMILES,IC50
1,CN(C)CCCN(C(=O)CCc1ccccc1)c1nc2ccc(Br)cc2s1,inactive
2,CCC1(C)N=C(c2ccc3c(c2)OCO3)CC(c2ccccc2O)N1 (stereo not given),1.93 µM
3,CC(C)(C)NC(=O)C(c1ccccc1F)n1c(=O)c(-c2ccco2)nc2ccccc21 (stereo not given),4.2 µM
4,Cc1ccc(/C(O)=C2/C(=O)C(=O)OC2c2ccc(Cl)cc2)cc1 (stereo not given),inactive
5,O=C(/C=C/c1ccccc1)CC(O)(c1ccccc1)C(F)(F)C(F)F (stereo not given),1.1 µM
6,C=CC(=O)N1c2ccccc2Sc2ccc(NC(=O)OCC)cc21,4.84 µM
7,CC1Sc2ccc(S(=O)(=O)N3CCC(C(=O)NCc4ccc(Cl)cc4)CC3)cc2NC1=O (stereo not given),inactive
8,CCOC(=O)c1c(C)oc2c1c(CN1CCN(CCO)CC1)c(O)c1ccccc12,3.58 µM
9,COc1ccc(NC(=O)C(c2ccc(OC)cc2)n2c(=O)c(-c3ccco3)nc3ccccc32)cc1 (stereo not given),inactive
10,CC(=O)Nc1ccc(S(=O)(=O)N2c3ccc(F)cc3CCC2C)cc1 (stereo not given),inactive
11,CC(C)(C)NC(=O)C(c1cc2ccccc2o1)n1c(=O)c(-c2ccco2)nc2ccccc21 (stereo not given),3.94 µM
12,CCN(CCCc1ccccc1)CCCc1ccccc1,2.62 µM
13,CCCCNC(=O)Nc1ccc2c(c1)N(C)C(=O)c1ccccc1S2,3.6 µM
14,CC(O)CC(=O)OC[C@]12CC[C@H]3[C@@](C)(CC[C@H]4C(C)(C)CCC[C@]34C)[C@@H]1CC(C1=CC(=O)OC1O)O2 (stereo not given in full),1.37 µM
15,COc1ccc(C(C(=O)NC2CCCCC2)n2c(=O)c(-c3ccco3)nc3ccccc32)cc1 (stereo not given),3.87 µM
16,Cc1nc2c(o1)CCc1ccccc1C2N1CCN(C)CC1 (stereo not given),4.44 µM
17,CC(C)(C)NC(=O)C(c1ccncc1)n1c(=O)c(-c2ccco2)nc2ccccc21 (stereo not given),4.21 µM
18,O=c1[nH]c(C2CCN(S(=O)(=O)c3ccc(S(=O)(=O)NC4CC4)cc3)CC2)nc2c1nnn2Cc1ccc(F)cc1,2.39 µM
19,N#Cc1ccc(C(C(=O)NC2CCCCC2)n2c(=O)c(-c3ccco3)nc3ccccc32)cc1 (stereo not given),4.03 µM
20,C#CCN(C[C@@H]1[C@@H](OC(=O)NCCCCCC)[C@@H](OC(=O)NCCCCCC)Cn2c(=O)ccc(=O)n21)S(=O)(=O)c1ccc(C)cc1,6.47 µM
21,Cc1cccc(C)c1NC(=O)C(c1ccc(-c2ccccc2)cc1)n1c(=O)c(-c2ccco2)nc2ccccc21 (stereo not given),2.64 µM
22,COc1ccc(C(C(=O)Nc2c(C)cccc2C)n2c(=O)c(-c3ccco3)nc3ccccc32)cc1 (stereo not given),4.29 µM
23,O=C1NC(=O)N(Cc2ccccc2)C(=O)/C1=C\C=C\c1ccco1,2.53 µM
24,N#Cc1ccc(C(C(=O)NCc2ccccc2)n2c(=O)c(-c3ccco3)nc3ccccc32)cc1 (stereo not given),2.85 µM
25,Cc1ccc(/C=C/C(=O)c2cc(Br)ccc2OC(=O)c2ccco2)cc1,0.68 µM

row,SMILES,IC50
1,CCOC1=CC2=C(C(=O)C(Cl)=CC2=O)[C@@H]2CN(S(=O)(=O)c3ccc(C)cc3)[C@@H](c3ccccc3)[C@H]12,2.25 µM
2,CC1CCN(S(=O)(=O)c2ccc(NC(=O)Cc3cccs3)cc2)CC1,8.04 µM
3,CC(=O)Cc1cc(O)c2ccccc2c1OC(=O)c1ccc(Br)cc1,4.1 µM
4,Cc1cccc(C)c1NC(=O)C(c1ccc(C(F)(F)F)cc1)n1c(=O)c(-c2ccco2)nc2ccccc21 (stereo not given),3.73 µM
5,O=C(NCc1ccccc1)C(c1ccccc1F)n1c(=O)c(-c2ccco2)nc2ccccc21 (stereo not given),4.43 µM
6,O=C1CC(c2ccc(Cl)cc2)Oc2ccc(Cl)cc21 (stereo not given),3.18 µM
7,Cc1nnc(NC(=O)c2nc(S(=O)(=O)Cc3ccccc3C)ncc2Cl)s1,5.92 µM
8,Cc1ccc(C(=O)c2coc3c2C(=O)C(=O)c2ccccc2-3)cc1,6.15 µM
9,O=C(/C=C/c1ccc(NC(=O)c2ccccc2-c2ccccc2C(=O)O)cc1)c1ccccc1,8.25 µM
10,COc1cc2c(cc1OC)C(C)N(CCc1ccc(Cl)cc1)CC2 (stereo not given),5.37 µM
11,Cc1cccc(C)c1NC(=O)C(c1cccc2ccccc12)n1c(=O)c(-c2ccco2)nc2ccccc21 (stereo not given),4.15 µM
12,CN1[C@@H]2CC[C@H]1CC(OC1c3ccccc3CCc3ccccc31)C2 (stereo not given in full),2.38 µM
13,CC1=CC2C(C(O)CC3(C)C2CC(C)C32OCOC23COCO3)C2(C)C/C(=C\O)C(=O)C=C12 (stereo not given),3.6 µM
14,CCCc1nnc(NC(=O)c2nc(S(=O)(=O)Cc3cccc(C)c3)ncc2Cl)s1,4.91 µM
15,CC1=CC(C)(C)Nc2ccc(OC(=O)c3cccnc3)cc21,3.25 µM
16,COC(=O)c1cc(=O)n(-c2ccc(F)cc2)c(=Nc2ccc(F)cc2)s1,3.34 µM
17,CCOc1cc(/C=C2\CCC/C(=C\c3cc(Cl)c(O)c(OCC)c3)C2=O)cc(Cl)c1O,3.55 µM
18,O=C(NC1CCCCC1)C(c1cc2ccccc2o1)n1c(=O)c(-c2ccco2)nc2ccccc21 (stereo not given),3.47 µM
19,FC(F)(F)c1cccc(NC(=S)N(CCCN2CCCC2)Cc2cccn2Cc2ccc(Cl)cc2)c1,> 13.3 µM (inactive)
20,N#Cc1ncc(Cc2ccccc2)nc1C#N,inactive
21,CCCCOC(=O)Nc1cc(C(=O)OC)ccc1C(=O)OC,4.5 µM
22,CCC(c1nc2ccccc2[nH]1)n1c(=O)c(-c2ccco2)nc2ccccc21 (stereo not given),5.45 µM
23,CC(C)(C)NC(=O)C(c1ccc(C#N)cc1)n1c(=O)c(-c2ccco2)nc2ccccc21 (stereo not given),2.52 µM
24,Cc1nc(-c2ccccc2)sc1C(=O)/C=C/c1ccccc1,2.35 µM
25,CC(CCc1ccco1)NC(=O)CCc1nnc2ccc(NCc3ccccc3Cl)nn12 (stereo not given),3.73 µM

row,SMILES,IC50
1,Cc1cc(C)c(NC(=O)C[N+](C)(C)CC(O)COc2cccc3ccccc23)c(C)c1 (stereo not given),8.93 µM
2,CC(=O)Cc1cc(O)c2ccccc2c1OC(=O)c1ccccc1,5.35 µM
3,COC(=O)c1ccc(Cn2cc(/C=C\[N+](=O)[O-])c3ccccc32)o1,inactive
4,CCC(=O)Nc1cccc(C(=O)/C=C/c2ccccc2)c1,3.05 µM
5,Cc1cccc(C)c1OCc1cn(CC(=O)c2ccc(O)cc2)nn1,5.07 µM
6,C=C1C(=O)O[C@H]2C[C@H]1[C@@H](OC(C)=O)C/C(C)=C/CC/C(C)=C\CC[C@]2(C)O,1.6 µM
7,CC(c1nc2ccccc2[nH]1)n1c(=O)c(-c2ccco2)nc2ccccc21 (stereo not given),6.21 µM
8,CN1CCC(=C2c3ccccc3CC(=O)c3sccc32)CC1,5.57 µM and 5.43 µM
9,CC(=O)Oc1ccc(C23c4ccccc4C2(OC(C)=O)c2cc(OC(C)=O)ccc23)cc1 (stereo not given),1.33 µM
10,Cc1cccc(C)c1NC(=O)C(c1ccncc1)n1c(=O)c(-c2ccco2)nc2ccccc21 (stereo not given),inactive
11,N#Cc1ccccc1OCc1cn(CC(=O)c2ccc(O)cc2)nn1,5.91 µM
12,Cc1ccc2sc(N(CCCN(C)C)C(=O)CN3C(=O)c4ccccc4C3=O)nc2c1C,inactive
13,O=CC1=C(c2ccccc2)Oc2ccccc2O1,3.02 µM
14,O=C(C[n+]1cccc(CNC(=O)c2ccc(OC(F)F)cc2)c1)Nc1cccc(C(F)(F)F)c1,inactive
15,CCCCCNC(=O)C(c1cccc2ccccc12)n1c(=O)c(-c2ccco2)nc2ccccc21 (stereo not given),4.25 µM
16,CCCCCNC(=O)C(c1ccc(OC)cc1)n1c(=O)c(-c2ccco2)nc2ccccc21 (stereo not given),3.4 µM
17,O=C(NC1CCCCC1)C(c1ccccc1)n1c(=O)c(-c2ccco2)nc2ccccc21 (stereo not given),1.94 µM
18,O=C(NC1CCCCC1)C(c1ccc(-c2ccccc2)cc1)n1c(=O)c(-c2ccco2)nc2ccccc21 (stereo not given),4.1 µM
19,CSc1nnc(NC(=O)c2nc(S(=O)(=O)Cc3ccc(C)cc3)ncc2Cl)s1,3.88 µM
20,CCC(C(=O)OCCN(CC)CC)c1ccccc1 (stereo not given),2.67 µM
21,COc1ccccc1/C=C/C(=O)c1ccccc1,9.15 µM
22,C#CCN(C[C@@H]1[C@@H](OC(=O)NCc2ccccc2F)[C@@H](OC(=O)NCc2ccccc2F)Cn2c(=O)ccc(=O)n21)S(=O)(=O)c1ccc(C)cc1,6.28 µM
23,CN(C)CCOC1(Cc2ccc(F)cc2)CCC(C(C)(C)C)CC1 (stereo not given),6.65 µM
24,O=C(NC1CCCCC1)C(c1ccnc2ccccc12)n1c(=O)c(-c2ccco2)nc2ccccc21 (stereo not given),4.42 µM
25,CC1=CC(C)(C)Nc2ccc(OC(=O)CN3C(=O)C4CCCCC4C3=O)cc21 (stereo not given),4 µM

row,SMILES,IC50
1,O=C1NC(=O)N(Cc2ccc(F)cc2)C(=O)/C1=C\C=C\c1ccco1,2.29 µM
2,CCCCCNC(=O)C(C1CC1)n1c(=O)c(-c2ccco2)nc2ccccc21 (stereo not given),9.99 µM
3,CN(C)CCOc1ccc(/C(=C(/CCCl)c2ccccc2)c2ccccc2)cc1,1.2 µM
4,COc1ccc(OCc2cn(CC(=O)c3ccc(O)cc3)nn2)cc1,5.67 µM
5,COc1ccc(C(C(=O)NCc2ccccc2)n2c(=O)c(-c3ccco3)nc3ccccc32)cc1 (stereo not given),5.37 µM
6,CCN(CC)CCC(C)OC(c1ccccc1)c1ccccc1 (stereo not given),3.29 µM
7,CCCCn1c(SCC(=O)NCc2ccco2)nnc1-c1ccoc1C,6.5 µM
8,NC(=O)CCN1CCN(CCOC2Cc3cc(Cl)ccc3Sc3ccccc32)CC1 (stereo not given),inactive
9,CCOC(=O)c1c(NC(C)=O)sc2c1CCC(C=O)=C2Sc1ccccc1,3.1 µM
10,COc1ccc(NC(=O)C(c2ccccc2)n2c(=O)c(-c3ccco3)nc3ccccc32)cc1 (stereo not given),inactive
11,Cc1ccc(C)c(/C=C/C(=O)c2ccccc(=O)c2O)c1,5.69 µM
12,O=c1nc(/C=C/c2ccc(Cl)cc2Cl)cc(C(F)(F)F)[nH]1,2.98 µM
13,COc1ccc(/C=C/C(=O)c2cc(F)ccc2OC(=O)c2ccc(OC)c(OC)c2)cc1OC,3.22 µM
14,CC(=O)Oc1c(Cl)c(N2CCOCC2)c(OC(C)=O)c2ccccc12,8.04 µM
15,O=C(COc1ccccc1Cl)Nc1ccc(N2CCCC2)cc1,> 39.9 µM (inactive)
16,CS(=O)(=O)c1ccc(C(=O)NCCN2C(=O)S/C(=C\c3cccnc3)C2=O)cc1[N+](=O)[O-],4.62 µM
17,Cc1cccc(C)c1NC(=O)C(c1ccccc1)n1c(=O)c(-c2ccco2)nc2ccccc21 (stereo not given),7.69 µM
18,O=C(NCc1ccccc1)C(C1CC1)n1c(=O)c(-c2ccco2)nc2ccccc21 (stereo not given),inactive
19,CC(=O)Oc1c(Cl)cc(N(C(C)=O)S(=O)(=O)c2ccccc2)c2ccccc12,7.06 µM
20,CCN1/C(=C/C=C/c2oc3ccc(-c4ccccc4)cc3[n+]2CC)Oc2ccc(-c3ccccc3)cc21,1.12 µM
21,CCOC(=O)C1CCCN(C(=O)c2cc(Nc3ccc(OC)cc3)nc3ccccc23)C1 (stereo not given),inactive
22,COc1cc(/C=C/C(=O)c2ccc(Cl)s2)cc(OC)c1O,6.42 µM
23,COc1ccc(C(C(=O)Nc2ccc3c(c2)OCCO3)n2c(=O)c(-c3ccco3)nc3ccccc32)cc1 (stereo not given),8.54 µM
24,CSc1nnc(NC(=O)c2nc(S(=O)(=O)Cc3ccccc3)ncc2Cl)s1,4.13 µM
25,O=C(Cn1c(=O)n(Cc2ccco2)c(=O)c2c3c(sc21)CCCC3)Nc1ccccc1,inactive
